Test results published in the NIST ThermoML archive (doi:10.1021/je700260f).
Numbers after ± are expanded uncertainties.

Details: Liquid, Vibrating tube method

FC(C(F)(F)F)C(F)(F)F [1,1,1,2,3,3,3-heptafluoropropane]
Details	mass density [kg/m3]
333.15 K, 33156 kPa	1451.3 ± 1.7
333.15 K, 33196 kPa	1451.6 ± 1.7
333.15 K, 33224 kPa	1451.7 ± 1.7
333.15 K, 33268 kPa	1451.7 ± 1.7
333.15 K, 33317 kPa	1451.9 ± 1.7
333.15 K, 33346 kPa	1452 ± 1.7
333.15 K, 33391 kPa	1452.2 ± 1.7
333.15 K, 33421 kPa	1452.4 ± 1.7
333.15 K, 33465 kPa	1452.5 ± 1.7
333.15 K, 33498 kPa	1452.4 ± 1.7
333.15 K, 33532 kPa	1452.7 ± 1.7
333.15 K, 33566 kPa	1452.8 ± 1.7
333.15 K, 33615 kPa	1453 ± 1.7
333.15 K, 33639 kPa	1453.3 ± 1.7
333.15 K, 33683 kPa	1453.3 ± 1.7
333.15 K, 33713 kPa	1453.3 ± 1.7
333.15 K, 33753 kPa	1453.7 ± 1.7
333.15 K, 34447 kPa	1456.1 ± 1.7
333.15 K, 34493 kPa	1456.2 ± 1.7
333.15 K, 34519 kPa	1456.4 ± 1.7
333.15 K, 34541 kPa	1456.4 ± 1.7
333.15 K, 34553 kPa	1456.4 ± 1.7
333.15 K, 34564 kPa	1456.6 ± 1.7
333.15 K, 34570 kPa	1456.7 ± 1.7
333.16 K, 8979 kPa	1316.3 ± 1.5
333.16 K, 9012 kPa	1316.5 ± 1.5
333.16 K, 9767 kPa	1323.1 ± 1.5
333.16 K, 9793 kPa	1323.2 ± 1.5
333.16 K, 9821 kPa	1323.4 ± 1.5
333.16 K, 9857 kPa	1323.7 ± 1.5
333.16 K, 9885 kPa	1324 ± 1.5
333.16 K, 9911 kPa	1324.3 ± 1.5
333.16 K, 9936 kPa	1324.5 ± 1.5
333.16 K, 9961 kPa	1324.7 ± 1.5
333.16 K, 9986 kPa	1324.9 ± 1.5
333.16 K, 10016 kPa	1325.2 ± 1.5
333.16 K, 10042 kPa	1325.3 ± 1.5
333.16 K, 10070 kPa	1325.4 ± 1.5
333.16 K, 10094 kPa	1325.8 ± 1.5
333.16 K, 10119 kPa	1326.1 ± 1.5
333.16 K, 10148 kPa	1326.3 ± 1.5
333.16 K, 10178 kPa	1326.6 ± 1.5
333.16 K, 10203 kPa	1326.6 ± 1.5
333.16 K, 10236 kPa	1326.9 ± 1.5
333.16 K, 10265 kPa	1327.2 ± 1.5
333.16 K, 10287 kPa	1327.4 ± 1.5
333.16 K, 10312 kPa	1327.6 ± 1.5
333.16 K, 10338 kPa	1327.9 ± 1.5
333.16 K, 10367 kPa	1328.1 ± 1.5
333.16 K, 10397 kPa	1328.3 ± 1.5
333.16 K, 10430 kPa	1328.5 ± 1.5
333.16 K, 10457 kPa	1328.7 ± 1.5
333.16 K, 10483 kPa	1329 ± 1.5
333.16 K, 10515 kPa	1329.4 ± 1.5
333.16 K, 10537 kPa	1329.3 ± 1.5
333.16 K, 10570 kPa	1329.8 ± 1.5
333.16 K, 10596 kPa	1329.9 ± 1.5
333.16 K, 10624 kPa	1330.1 ± 1.5
333.16 K, 10654 kPa	1330.5 ± 1.5
333.16 K, 10839 kPa	1331.8 ± 1.5
333.16 K, 10866 kPa	1332.1 ± 1.5
333.16 K, 10896 kPa	1332.3 ± 1.5
333.16 K, 10918 kPa	1332.5 ± 1.5
333.16 K, 10947 kPa	1332.7 ± 1.5
333.16 K, 10979 kPa	1332.9 ± 1.5
333.16 K, 11112 kPa	1334 ± 1.5
333.16 K, 11141 kPa	1334.3 ± 1.5
333.16 K, 11160 kPa	1334.5 ± 1.5
333.16 K, 11186 kPa	1334.6 ± 1.5
333.16 K, 11212 kPa	1334.9 ± 1.5
333.16 K, 11245 kPa	1335.1 ± 1.5
333.16 K, 11275 kPa	1335.4 ± 1.5
333.16 K, 11298 kPa	1335.5 ± 1.5
333.16 K, 11320 kPa	1335.7 ± 1.5
333.16 K, 11353 kPa	1336 ± 1.5
333.16 K, 11388 kPa	1336.3 ± 1.5
333.16 K, 11415 kPa	1336.6 ± 1.5
333.16 K, 11450 kPa	1336.7 ± 1.5
333.16 K, 11481 kPa	1337 ± 1.5
333.16 K, 11534 kPa	1337.4 ± 1.5
333.16 K, 11792 kPa	1339.3 ± 1.5
333.16 K, 11824 kPa	1339.6 ± 1.5
333.16 K, 11847 kPa	1339.8 ± 1.5
333.16 K, 11870 kPa	1339.9 ± 1.5
333.16 K, 11897 kPa	1340.1 ± 1.5
333.16 K, 11937 kPa	1340.4 ± 1.5
333.16 K, 11965 kPa	1340.6 ± 1.5
333.16 K, 11989 kPa	1340.8 ± 1.5
333.16 K, 12024 kPa	1341.1 ± 1.5
333.16 K, 12062 kPa	1341.3 ± 1.5
333.16 K, 12090 kPa	1341.4 ± 1.5
333.16 K, 12120 kPa	1341.8 ± 1.5
333.16 K, 12147 kPa	1342 ± 1.5
333.16 K, 12167 kPa	1342.2 ± 1.5
333.16 K, 12202 kPa	1342.3 ± 1.5
333.16 K, 12226 kPa	1342.6 ± 1.5
333.16 K, 12261 kPa	1342.8 ± 1.5
333.16 K, 12289 kPa	1343 ± 1.5
333.16 K, 12321 kPa	1343.4 ± 1.5
333.16 K, 12345 kPa	1343.5 ± 1.5
333.16 K, 12385 kPa	1343.8 ± 1.5
333.16 K, 12416 kPa	1344 ± 1.5
333.16 K, 12443 kPa	1344.2 ± 1.5
333.16 K, 12466 kPa	1344.3 ± 1.5
333.16 K, 12886 kPa	1347.5 ± 1.5
333.16 K, 12914 kPa	1347.5 ± 1.5
333.16 K, 12942 kPa	1347.8 ± 1.5
333.16 K, 12966 kPa	1347.9 ± 1.5
333.16 K, 12994 kPa	1348.2 ± 1.5
333.16 K, 13023 kPa	1348.2 ± 1.5
333.16 K, 13053 kPa	1348.6 ± 1.5
333.16 K, 13082 kPa	1348.9 ± 1.5
333.16 K, 13115 kPa	1349.1 ± 1.5
333.16 K, 13140 kPa	1349.1 ± 1.5
333.16 K, 13164 kPa	1349.4 ± 1.5
333.16 K, 13196 kPa	1349.7 ± 1.5
333.16 K, 13220 kPa	1349.7 ± 1.5
333.16 K, 13244 kPa	1349.9 ± 1.5
333.16 K, 13272 kPa	1350.2 ± 1.5
333.16 K, 13304 kPa	1350.5 ± 1.5
333.16 K, 13324 kPa	1350.5 ± 1.5
333.16 K, 13344 kPa	1350.6 ± 1.5
333.16 K, 13368 kPa	1350.9 ± 1.5
333.16 K, 13394 kPa	1351.1 ± 1.5
333.16 K, 13432 kPa	1351.2 ± 1.5
333.16 K, 13461 kPa	1351.4 ± 1.5
333.16 K, 13494 kPa	1351.7 ± 1.5
333.16 K, 13518 kPa	1351.9 ± 1.5
333.16 K, 13633 kPa	1352.7 ± 1.5
333.16 K, 13666 kPa	1352.9 ± 1.5
333.16 K, 13690 kPa	1353 ± 1.5
333.16 K, 13724 kPa	1353.1 ± 1.5
333.16 K, 13921 kPa	1354.7 ± 1.5
333.16 K, 13954 kPa	1354.9 ± 1.5
333.16 K, 13991 kPa	1355.1 ± 1.5
333.16 K, 14017 kPa	1355.3 ± 1.5
333.16 K, 14050 kPa	1355.5 ± 1.5
333.16 K, 14075 kPa	1355.8 ± 1.5
333.16 K, 14106 kPa	1355.9 ± 1.5
333.16 K, 14140 kPa	1356.2 ± 1.5
333.16 K, 14828 kPa	1360.7 ± 1.5
333.16 K, 14853 kPa	1360.9 ± 1.5
333.16 K, 14892 kPa	1361.2 ± 1.5
333.16 K, 14922 kPa	1361.4 ± 1.5
333.16 K, 14953 kPa	1361.5 ± 1.5
333.16 K, 14979 kPa	1361.7 ± 1.5
333.16 K, 15001 kPa	1361.9 ± 1.5
333.16 K, 15034 kPa	1362.1 ± 1.5
333.16 K, 15054 kPa	1362.3 ± 1.5
333.16 K, 15081 kPa	1362.5 ± 1.5
333.16 K, 15117 kPa	1362.6 ± 1.5
333.16 K, 15153 kPa	1362.8 ± 1.5
333.16 K, 15179 kPa	1363 ± 1.5
333.16 K, 15260 kPa	1363.6 ± 1.5
333.16 K, 15320 kPa	1364 ± 1.5
333.16 K, 15346 kPa	1364.2 ± 1.5
333.16 K, 15370 kPa	1364.4 ± 1.5
333.16 K, 15404 kPa	1364.4 ± 1.5
333.16 K, 15436 kPa	1364.7 ± 1.5
333.16 K, 15464 kPa	1364.9 ± 1.5
333.16 K, 15500 kPa	1365.2 ± 1.5
333.16 K, 15533 kPa	1365.2 ± 1.5
333.16 K, 15561 kPa	1365.5 ± 1.5
333.16 K, 15593 kPa	1365.8 ± 1.5
333.16 K, 15630 kPa	1366 ± 1.5
333.16 K, 15658 kPa	1366.2 ± 1.5
333.16 K, 15689 kPa	1366.4 ± 1.5
333.16 K, 15953 kPa	1368 ± 1.5
333.16 K, 15985 kPa	1368.1 ± 1.5
333.16 K, 16013 kPa	1368.3 ± 1.5
333.16 K, 16049 kPa	1368.5 ± 1.6
333.16 K, 16085 kPa	1368.9 ± 1.6
333.16 K, 16105 kPa	1369.1 ± 1.6
333.16 K, 16141 kPa	1369.2 ± 1.6
333.16 K, 16169 kPa	1369.4 ± 1.6
333.16 K, 16193 kPa	1369.6 ± 1.6
333.16 K, 16223 kPa	1369.6 ± 1.6
333.16 K, 16248 kPa	1370 ± 1.6
333.16 K, 16281 kPa	1370.1 ± 1.6
333.16 K, 16314 kPa	1370.3 ± 1.6
333.16 K, 16339 kPa	1370.4 ± 1.6
333.16 K, 16363 kPa	1370.5 ± 1.6
333.16 K, 16388 kPa	1370.7 ± 1.6
333.16 K, 16416 kPa	1370.9 ± 1.6
333.16 K, 16540 kPa	1371.7 ± 1.6
333.16 K, 16572 kPa	1371.9 ± 1.6
333.16 K, 16600 kPa	1372 ± 1.6
333.16 K, 16655 kPa	1372.4 ± 1.6
333.16 K, 16788 kPa	1373.2 ± 1.6
333.16 K, 16821 kPa	1373.3 ± 1.6
333.16 K, 16850 kPa	1373.5 ± 1.6
333.16 K, 16876 kPa	1373.7 ± 1.6
333.16 K, 16909 kPa	1373.8 ± 1.6
333.16 K, 16937 kPa	1374.2 ± 1.6
333.16 K, 16964 kPa	1374.2 ± 1.6
333.16 K, 16992 kPa	1374.4 ± 1.6
333.16 K, 17013 kPa	1374.5 ± 1.6
333.16 K, 17038 kPa	1374.7 ± 1.6
333.16 K, 17063 kPa	1374.9 ± 1.6
333.16 K, 17088 kPa	1374.9 ± 1.6
333.16 K, 17109 kPa	1375.2 ± 1.6
333.16 K, 17137 kPa	1375.3 ± 1.6
333.16 K, 17162 kPa	1375.4 ± 1.6
333.16 K, 17189 kPa	1375.7 ± 1.6
333.16 K, 17215 kPa	1375.7 ± 1.6
